Test results published in patent US12565467B2, “Compounds, compositions, and methods for the treatment of inflammatory, degenerative, and neurodegenerative diseases” (Board of Supervisors of Louisiana State University and …, priority 2015, dated 2026).

Experiments:
SIRT1 = SIRT1 abundance in ARPE-19 cells under oxidative stress; format: cell-based; conditions: ARPE-19 / human RPE cells confronted with OS
Excerpt: FIG. 10. (A) Effect of NPD1 and VLC-PUFA C32:6 and C34:6 in mediating upregulation of SIRT1 in ARPE-19 cells. (B) Quantification of SIRT1 upregulation by NPD1, C32:6 and C34:6. SIRT1 (Sirtuin1) belongs to a family of highly conserved proteins linked to caloric restriction beneficial outcomes and aging by regulating energy metabolism, genomic stability and stress resistance. SIRT1 is a potential therapeutic target in several diseases including cancer, diabetes, inflammatory disorders, and neurodegenerative diseases or disorders. Elovanoids induce cell survival involving the upregulation of the Bcl2 class of survival proteins and the downregulation of pro-apoptotic Bad and Bax under oxidative stress (OS) in RPE cells. […] As a consequence, remarkable cell survival takes place. This target of elovanoids might be relevant to counteract consequences of several diseases associated with SIRT1.
FIG. 10—(A) Effect of NPD1 and VLC-PUFA C32:6 and C34:6 in mediating upregulation of SIRT1 in ARPE-19 cells. (B) Quantification of SIRT1 upregulation by NPD1, C32:6 and C34:6. SIRT1 (Sirtuin1) belongs to a family of highly conserved proteins linked to caloric restriction beneficial outcomes and aging by regulating energy metabolism, genomic stability and stress resistance. […]

[1] = test system: human retinal pigment epithelial (RPE) cells deficient in 15-LOX-D1; test: Oxidative stress (OS) induced apoptosis / cell death in 15-LOX-1-deficient human RPE cells; format: cell-based
Excerpt: (§1) FIG. 4. (A) Cytoprotective effects of NPD1 like compounds on OS induced apoptosis. The results shown in this figure compare the cytoprotective capacities of long chain polyunsaturated fatty acids (VLC-PUFA), elovanoids ELV1 and ELV2, and neuroprotectin D1 (NPD1) in human retinal pigment epithelial (RPE) cells deficient in 15-LOX-D1 by measuring the protection of cell deaths induced by oxidative stress (OS) by these compounds. […] (B) Elovanoid precursors protect human retinal pigment epithelial cells deficient in 15-LOX-1, unlike DHA, from oxidative stress conditions.
(§2) FIG. 5. (A) Effect of PD146176 on VLC-PUFA-inhibited apoptosis induced by OS in ARPE-19 cells. […] It is evident that 32:6 and 34:6 LCAF were able to induce a substantial amount (55 and 48% respectively) of neuroprotection compared to PD 146176 (22%) when the stressed cells were treated with 5 μm of 15-LOX-D1 inhibitor. It can be concluded that since PD146176 is the inhibitor of 15-lipooxygenase enzyme, it might be protecting the stressed RPE cells by accumulating neuroprotective agents inside the cells. (B) Comparison of cytoprotective capacities of NPD1, C32:6 and C34:6 VLC-PUFA on oxidative stress-induced apoptosis in 15-LOX-1 cells. Shown here is the comparison of neuroprotection in a 15-LOX-1-deficient cell line under oxidative stress with 32:6 and 34:6 VLC-PUFA along with NPD1. 32:6 and 34:6 LCAF were able to induce neuroprotection (45% and 40% respectively), as compared to oxidative stress (90%) under this condition. (C) Concentration dependent cytoprotection by C32:6 and C34:6 VLC-PUFA in oxidative-stress induced ARPE-19 cells. A concentration (50-500 nM) kinetic of cytoprotection induced by LCAF 32:6 and 34:6 in RPE cell culture under OS was shown here. […] We decided to use 250 nM concentrations of 32:6 and 34:6 LCAF in subsequent experiments. (D) Selected images of alive and dead cells from this study (control, OS, treatment with C32:6).
as §1, with “Evidence of cytoprotection by 32.6 and 34.6 VLC-PUFA in oxidative-stress induced ARPE-19 cells as detailed in (FIG. 4): (A) Cytoprotective” for “FIG. 4. (A) Cytoprotective”, “capacities of very long chain” for “capacities of long chain”
FIG. 5—(A) Effect of PD146176 on VLC-PUFA inhibited apoptosis induced by OS in ARPE-19 cells. […] It is evident that 32:6 and 34:6 LCAF were able to induce a substantial amount (55 and 48% respectively) of neuroprotection compared to PD 146176 (22%) when the stressed cells were treated with 5 μm of 15-LOX-D1 inhibitor. It can be concluded that since PD146176 is the inhibitor of 15-lipooxygenase enzyme, it might be protecting the stressed RPE cells by accumulating neuroprotective agents inside the cells. (B) Comparison of cytoprotective capacities of NPD1, C32:6 and C34:6 VLC-PUFA on oxidative stress-induced apoptosis in 15-LOX-1 cells. Shown here is the comparison of neuroprotection in a 15-LOX-1-deficient cell line under oxidative stress with 32:6 and 34:6 VLC-PUFA along with NPD1. 32:6 and 34:6 VLC-PUFA were able to induce neuroprotection (45% and 40% respectively), as compared to oxidative stress (90%) under this condition. (C) Concentration dependent cytoprotection by C32:6 and C34:6 VLC-PUFA in oxidative-stress induced ARPE-19 cells. A concentration (50-500 nM) kinetic of cytoprotection induced by VLC-PUFA 32:6 and 34:6 in RPE cell culture under OS was shown here. […] We decided to use 250 nM concentrations of 32:6 and 34:6 VLC-PUFA in subsequent experiments. […]

ARPE-19 cells = test: Oxidative stress induced apoptosis / cell death in ARPE-19 cells; format: cell-based, human; conditions: for concentration dependent cytoprotection (FIG. 5C): ARPE-19 under OS
Description: as §2
FIG. 5—(A) Effect of PD146176 on VLC-PUFA inhibited apoptosis induced by OS in ARPE-19 cells. […] It is evident that 32:6 and 34:6 LCAF were able to induce a substantial amount (55 and 48% respectively) of neuroprotection compared to PD 146176 (22%) when the stressed cells were treated with 5 μm of 15-LOX-D1 inhibitor. It can be concluded that since PD146176 is the inhibitor of 15-lipooxygenase enzyme, it might be protecting the stressed RPE cells by accumulating neuroprotective agents inside the cells. (B) Comparison of cytoprotective capacities of NPD1, C32:6 and C34:6 VLC-PUFA on oxidative stress-induced apoptosis in 15-LOX-1 cells. Shown here is the comparison of neuroprotection in a 15-LOX-1-deficient cell line under oxidative stress with 32:6 and 34:6 VLC-PUFA along with NPD1. 32:6 and 34:6 VLC-PUFA were able to induce neuroprotection (45% and 40% respectively), as compared to oxidative stress (90%) under this condition. (C) Concentration dependent cytoprotection by C32:6 and C34:6 VLC-PUFA in oxidative-stress induced ARPE-19 cells. A concentration (50-500 nM) kinetic of cytoprotection induced by VLC-PUFA 32:6 and 34:6 in RPE cell culture under OS was shown here. […] We decided to use 250 nM concentrations of 32:6 and 34:6 VLC-PUFA in subsequent experiments. (D) Selected images of alive and dead cells from this study (control, OS, treatment with C32:6).

Bcl2 = Bcl2 protein in RPE (LOX-D / ARPE-19) cells under oxidative stress; format: cell-based, human
Excerpt: FIG. 9. (A) VLC-PUFA and elovanoids ELV1 and ELV2 mediated effect on Bcl2 upregulation in ARPE-19 cells under stress. In this experiment we tested the effect of elovanoid precursors on Bcl2 upregulation along with VLC-PUFA in stressed RPE. (B) Quantification of Bcl2 upregulation by NPD1, ELV1 and ELV2 in LOX-D cells. Bcl2 is an important antiapoptotic protein of the Bcl2 family protein.
FIG. 9—(A) VLC-PUFA and elovanoids ELV1 and ELV2 mediated effect on Bcl2 upregulation in ARPE-19 cells under stress. In this experiment we tested the effect of elovaniod precursors on Blc2 upregulation along with VLC-PUFA in stressed RPE. (B) Quantification of Bcl2 upregulation by NPD1, ELV1 and ELV2 in LOX-D cells. Bcl2 is an important antiapoptotic protein of the Bcl2 family protein.

Bax = Bax expression in LOX-D RPE cells under oxidative stress; format: cell-based, human
Description: (§3) FIG. 8. (A) Bcl-xL-upregulation by elovanoids ELV1 and ELV2 in ARPE-19 cells under stress. Bcl-xL is the antiapoptotic Bcl2 family protein. Like proapoptotic proteins Bid and Bim, the effect of elovaniod precursors on the antiapoptotic protein Bcl-xL was tested in this figure in RPE cells under OS. […] (B) Effect of NPD1, ELV1 and ELV2 on Bax expression in LOX-D cells under stress. Proapoptotic Bax was tested in this figure. […] C) VLC-PUFA and elovanoids ELV1 and ELV2 mediated effect on Bax upregulation in ARPE-19 cells under stress. In this experiment, elovanoid precursors along with VLC-PUFA were tested on the downregulation of the Bax protein in RPE cells under stress.
as §3, with “8—(A)” for “8. (A)”

Bcl-xL = Bcl-xL protein in ARPE-19 cells under oxidative stress; format: cell-based, human; conditions: ARPE-19 cells under OS
Description: as §3
as §3, with “8—(A)” for “8. (A)”

Bid = Bid protein by western blot in ARPE-19 cells under oxidative stress; format: cell-based, human
Excerpt: FIG. 6. (A) VLC-PUFA and elovanoids ELV1 and ELV2 mediated effect on Bid upregulation in ARPE-19 cells under stress. […] (B) VLC-PUFA and ELV1 and ELV2 compounds mediated upregulation of Bid in ARPE-19 cells under stress.
FIG. 6—(A) VLC-PUFA and elovanoids ELV1 and ELV2 mediated effect on Bid upregulation in ARPE-19 cells under stress. […] (B) VLC-PUFA and ELV1 and ELV2 compounds mediated upregulation of Bid in ARPE-19 cells under stress.

Bim = Bim protein in ARPE-19 cells under oxidative stress; format: cell-based, human; conditions: ARPE-19 cells under stress
Excerpt: (§4) FIG. 7. (A) VLC-PUFA and ELV1 and ELV2 compounds mediated downregulation of Bim in ARPE-19 cells under stress. Bim, another class of Bcl2 family, has been tested like Bid in this figure to confirm our previous results. VLC-PUFA and elovanoids protected against the upregulation of Bim by OS, similar to Bid, in RPE cells under stress. (B) VLC-PUFA and elovanoids mediated effect on Bim downregulation in ARPE-19 cells under stress.
as §4, with “7—A)” for “7. (A)”, “[…]” for “downregulation”, “protected” for “protected against”

Question: Which “effect on SIRT1 abundance (FIG. 10)” value (SIRT1) does the source give for CC/C=C\C/C=C\C/C=C\C/C=C\C/C=C\C/C=C\CCCCCCCCCCCCC(=O)O [C32:6] here?
Answer: mediate the upregulation of SIRT1

Question: And the “neuroprotection (FIG. 5B)” value ([1]; 15-LOX-1-deficient cell line under oxidative stress, compared to oxidative stress (90%))?
Answer: 45%

Question: And the “protection against cell death under oxidative stress conditions (FIG. 4B)” value ([1]; 15-LOX-D1 cells under oxidative stress)?
Answer: protect against cell death

Question: And the “concentration dependent cytoprotection (FIG. 5C)” value (ARPE-19 cells; 250 nM)?
Answer: very good intermediate effect

Question: And the “concentration dependent cytoprotection (FIG. 5C)” value (ARPE-19 cells; 500 nM)?
Answer: maximum effect

Question: What about the “protection against OS in RPE cells (summary, FIGS. 4-10)” value (ARPE-19 cells; RPE cells) of the same molecule?
Answer: protective against OS

Question: And the “concentration dependent cytoprotection (FIG. 5C)” value (ARPE-19 cells; starting from 50 nM)?
Answer: gradual decrease of cell deaths

Question: And the “neuroprotection (FIG. 5A)” value (ARPE-19 cells; stressed ARPE-19 cells treated with 5 μm of 15-LOX-D1 inhibitor PD146176)?
Answer: 55%

Question: With CC/C=C\C[C@H](O)\C=C/C=C/C=C/[C@H](O)C/C=C\C/C=C\CCCCCCCCCCCCC(=O)O [ELV1, (14Z,17Z,20R,21E,23E,25Z,27S,29Z)-20,27-dihydroxydotriaconta-14,17,21,23,25,29-hexaenoic acid] as the molecule, how does the “effect on Bcl2 protein (FIG. 9)” value (Bcl2) read?
Answer: potent upregulation

Question: What about the “effect on Bax upregulation by OS (FIG. 8B)” value (Bax) of the same molecule?
Answer: potent downregulation

Question: What about the “effect on antiapoptotic Bcl-xL protein (FIG. 8A)” value (Bcl-xL) of the same molecule?
Answer: potent upregulation

Question: What about the “activity against OS relative to the related VLC-PUFA (FIG. 4)” value ([1]; as sodium salts or methyl esters) of the same molecule?
Answer: more potent activity against OS than the related VLC-PUFA

Question: And the “effect on Bid protein upregulated by OS (FIG. 6)” value (Bid)?
Answer: potent downregulation

Question: What about the “effect on Bim upregulation by OS (FIG. 7)” value (Bim) of the same molecule?
Answer: potent downregulation
